# Test results from USRE43879E1, “Use of the dextrogyral enantiomer of milnacipran for the preparation of a drug” (priority 2003, dated 2012).
# Like-named read-outs stand apart in the source and are kept apart here.
# Key:
# primary rat hepatocytes = assay: Safe-Hit genomic test of predictive toxicology (Toxicity Index) on primary rat hepatocytes; type: cell-based; conditions: 16 h
# Description: After treatment of the primary rat hepatocytes in culture, the RNA was extracted in order to generate labelled complementary-DNA probes which were then hybridised on a membrane containing 682 alternatively-spliced fragments specific to cell stress. A Toxicity Index was obtained for each of the products by comparing the hybridisation profile of the treated cells with that of the untreated cells.
# Safe-Hit allows molecules within a chemical series to be ranked according to a Toxic Index, determined after the following basic steps (systematically performed in duplicate for each product): • treatment of the cells lines with the various products at three different concentrations, deduced from a preliminary cytotoxicology test (MTT-assay): a reference concentration corresponding to 80% cell viability, a concentration 10-fold higher—when possible—and a concentration 10-fold lower, • preparation of total RNA and of the corresponding radio-labelled cDNA probes, • hybridisation of the cDNA probes: the Safe-Hit macroarray contains 682 independent clones, corresponding to alterations in gene splicing induced by overexpression of WTp53 (p53 is the most ubiquitous “mediator” of cell stress, chosen for the development of this methodology), • acquisition and determination of the Toxicity Index. 4.1.2. Cells
# The cells used in the study (preliminary MTT-assay of cytotoxicity and the main test) are cryopreserved hepatocytes from Sprague-Dawley rats in primary culture (batches Hep184005 and Hep184006-Biopredic), cultured under standard conditions.
# The cells are seeded and cultured for 16 hours with each product, at the three concentrations chosen on the basis of the preliminary MTT-assay; two controls (untreated cells in solvent alone) are added to the series.
# The results of the two Safe-Hit analyses are then compared and combined to assess the potential toxicity of the various compounds tested. Two parameters that can be modified by the user are involved in the calculation of the Toxicity Index: • Background Threshold (BT) smoothes out weak signals, close to background noise and not attributable to significant gene expression. […] The value of this parameter is usually 2 or less than 2 in order to obtain relevant results. […]
# Toxicity Indices (TI) were determined as described above. […] Two separate analyses were performed using two levels of differentiation (Induction Factor-IF) in relation to the untreated controls: • a factor of at least 1.7 in relation to the untreated controls. This factor of 1.7 times represents the weakest value that allows an index not to be obtained in relation to the two untreated controls. • a factor of at least 2 in relation to the untreated controls. This factor of 2 times allows the most robust signals to be taken into account. 4.3.1. Induction Factor of 1.7 in Relation to Untreated Control (Table 7)
# [1] = Pharmacokinetic study in man (12 healthy subjects), racemate or one enantiomer alone; type: in vivo; conditions: human, plasma; for half-life: read-out: T½ (converted)
# Experimental: A pharmacokinetic study in man involving 12 healthy subjects was performed by administering the racemate or one of the two enantiomers alone.
# [2] = in vivo
# Description: In animals, the pharmacokinetics of each enantiomer were studied following administration of the racemate or of one single enantiomer.
# 3H-paroxetine binding = molecular target: T1, 3H-paroxetine binding (Rattus norvegicus, UniProt P31652); assay: Paroxetine binding, rat hypothalamus membranes
# T1 construct: the hypothalamus was removed, weighed and homogenised on a Dounce; from tissue
# T1 sequence (P31652 whole entry): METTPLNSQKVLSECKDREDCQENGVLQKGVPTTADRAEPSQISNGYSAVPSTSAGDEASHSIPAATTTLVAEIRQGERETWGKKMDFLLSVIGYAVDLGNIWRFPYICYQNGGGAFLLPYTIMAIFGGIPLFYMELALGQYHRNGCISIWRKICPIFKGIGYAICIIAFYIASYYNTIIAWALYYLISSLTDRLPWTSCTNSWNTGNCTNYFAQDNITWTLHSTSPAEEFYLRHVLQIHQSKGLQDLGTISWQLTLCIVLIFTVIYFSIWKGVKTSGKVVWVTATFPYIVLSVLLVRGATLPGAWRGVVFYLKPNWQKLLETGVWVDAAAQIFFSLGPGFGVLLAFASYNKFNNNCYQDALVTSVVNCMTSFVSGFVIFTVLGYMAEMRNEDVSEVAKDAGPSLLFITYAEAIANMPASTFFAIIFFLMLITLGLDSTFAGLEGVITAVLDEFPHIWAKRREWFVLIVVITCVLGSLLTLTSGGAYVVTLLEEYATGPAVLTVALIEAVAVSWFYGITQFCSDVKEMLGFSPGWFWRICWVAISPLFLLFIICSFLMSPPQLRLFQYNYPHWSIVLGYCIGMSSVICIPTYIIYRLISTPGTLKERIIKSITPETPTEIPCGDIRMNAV
# Experimental: 2.1.3. Paroxetine Binding
# Male Sprague-Dawley rats (Janvier) weighing 180-200 g were used. The hypothalami of several rats were collected and homogenised in 5 ml of chilled buffer (50 mM Tris-HCL, 120 mM NaCl, 5 mM KCl, pH 7.5) on a Dounce, and the homogenate was centrifuged at 30 000 g (27 000 rpm-Beckman. L5-50E, T40 rotor) for 10 min. The residue obtained was recovered in 5 ml of buffer and re-centrifuged under the same conditions. The new residue was recovered in the same buffer and finally re-homogenised on a Dounce at a tissue concentration of 10 mg/ml. The membrane suspension (100 μl) was incubated with 3H-paroxetine (NEN, France, 28.6 Ci/mmol) at a concentration (final) of 0.1 nM, at 20° C., in a final volume of 1 ml for 2 hr. After 2 hr incubation, the reaction was stopped by vacuum filtration on Whatman GF/F filters pre-treated in a 0.05% solution of polyethylenimine 30 min beforehand (prediluted with 4 ml of chilled buffer, then the tube was rinsed with 2 times 4 ml). Radioactivity was measured by liquid scintillation spectrometry (Packard, Tricarb 4640) using Emulsifier-Safe (Packard) as the scintillating agent.
# Specific ^3H-paroxetine binding was defined as the difference between total binding and that remaining in the presence of 10 μM of fluoxetine.
# The IC50 were determined by transposing the percentages of inhibition onto a graph in relation to the log of the concentration of the product (6 concentrations in duplicate).
# 3H-serotonin uptake = molecular target: T2, 3H-serotonin uptake (Rattus norvegicus, UniProt P31652); assay: Serotonin uptake, rat hypothalamus P2 fraction (synaptosomes); type: biochemical
# T2 construct: the hypothalamus was removed, weighed and homogenised on a Dounce; from tissue
# T2 sequence (P31652 whole entry): as above
# Experimental: After homogenisation of brain tissue in a sucrose solution, the presynaptic terminals break away from the axon and close to form synaptosomes obtained by subcellular fractionation.
# Male Sprague-Dawley (Janvier) rats weighing 180-200 g were used.
# This homogenate was centrifuged for 10 min at 1,000 g (2,400 rpm-Hettich, Rotenta). […] The residue (called the P2 fraction) was recovered in sucrose at a concentration of 50 mg/ml.
# Exactly 5 min after the start of incubation, the reaction was stopped by vacuum filtration on Whatman GF/F filters (predilution with 2.5 ml of chilled buffer then rinsing with 3 times 2.5 ml).
# The IC50 were determined by transposing the percentages of inhibition onto a graph in relation to the log of the product concentration (6 concentrations in duplicate).
# 3H-norepinephrine uptake [3] = molecular target: T3, 3H-norepinephrine uptake (Rattus norvegicus, UniProt Q63380); assay: biochemical
# T3 sequence (Q63380 1-617): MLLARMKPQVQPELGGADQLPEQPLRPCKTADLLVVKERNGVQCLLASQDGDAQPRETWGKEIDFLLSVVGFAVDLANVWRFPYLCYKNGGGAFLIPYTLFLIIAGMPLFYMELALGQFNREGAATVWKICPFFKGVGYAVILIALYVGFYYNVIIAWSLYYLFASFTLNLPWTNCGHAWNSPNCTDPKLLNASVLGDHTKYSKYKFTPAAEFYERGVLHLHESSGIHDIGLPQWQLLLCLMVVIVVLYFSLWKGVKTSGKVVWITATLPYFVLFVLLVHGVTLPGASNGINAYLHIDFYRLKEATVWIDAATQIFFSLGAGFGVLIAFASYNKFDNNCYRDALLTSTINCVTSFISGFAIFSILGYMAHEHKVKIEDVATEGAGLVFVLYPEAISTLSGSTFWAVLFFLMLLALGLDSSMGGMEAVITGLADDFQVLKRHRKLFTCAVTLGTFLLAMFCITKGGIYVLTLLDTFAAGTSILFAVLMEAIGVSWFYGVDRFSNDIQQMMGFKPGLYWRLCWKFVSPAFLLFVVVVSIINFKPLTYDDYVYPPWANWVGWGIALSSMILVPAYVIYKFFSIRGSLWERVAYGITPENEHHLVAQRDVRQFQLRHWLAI
# Experimental: (§1) Norepinephrine Uptake by a Homogenate (P2) of Rat Hypothalamus.
# (§2) Male Sprague-Dawley rats, from 200 to 300 g, were stunned and decapitated, and the hypothalami were rapidly removed. Two hypothalami are homogenised in 4 ml of sucrose 0.32 M on a Potter S by 16 complete passes back and forth at 800 rpm, then centrifuged for 10 min at 1,000 g to eliminate cell debris. The supernate is centrifuged for 20 min at 10,000 g and the P2 thus obtained is recovered in 4 ml of sucrose 0.32 M, and homogenised on a Dounce.
# (§3) ^3H-(1)-NE: 13 Ci/mmol (Amersham) is used.
# (§4) Uptake takes place in a phosphate buffer (containing 8 g of NaCl, 1.21 g of K2HPO4 and 0.34 g of KH2PO4 per liter) pre-oxygenated 30 min before use with a mixture of O2/CO2 (95%/5%).
# (§5) In 5-ml plastic tubes placed in a water bath at 37° C., the following are introduced: • 100 μl of buffer or inhibitor, • 700 μl of buffer (containing 25 μM pargyline), • 100 μl of P2.
# (§6) After temperature balance, the reaction begins by the addition of 100 μl of ^3H-NE, 50 nM final concentration.
# (§7) Exactly 10 min later, the reaction is stopped by adding 2.5 ml of chilled buffer and filtering through GF/F filters. The tube is then rinsed once and the filter once with 2.5 ml of chilled buffer. The filter is then introduced into a Beckman mini-vial and, after adding 3 ml of Instagel (Packard) liquid scintillator, radioactivity is measured with a Tricarb Packard scintillation counter.
# (§8) Non-specific uptake (NS) is measured as the presence of DMI 10^−5 M.
# (§9) The percentage of inhibition is calculated using the formula:
# (§10) The IC50 is determined graphically on the mean curve of percentage of inhibition (4 assays) in relation to the log of the concentration of inhibitor.
# 3H-norepinephrine uptake [4] = molecular target: T3, 3H-norepinephrine uptake; conditions: read-out: IC50 3H-Norepinephrine uptake; rat hypothalamus P2, 3H-NE 50 nM, 10 min, 37° C.
# Experimental: as §1, §2, §3, §4, §5, §6, §7, §8, §9, §10
# [5] = enantiomer administered alone (25 mg)
# [6] = enantiomer assayed after F2207 (50 mg)
compound,measurement,setting,value
"CCN(CC)C(=O)[C@]1(c2ccccc2)C[C@@H]1CN [F2696, Z-(1R, 2S)-2-(aminomethyl)-N,N-diethyl-1-phenyl cyclopropane carboxamide]","Clone G09 (H. sapiens mitochondrion, cytochrome b), regulation factor vs untreated control",primary rat hepatocytes; 100 μM,2.09
same,"Clone I01 (H. sapiens mitochondrion, cytochrome c oxidase subunit 1), regulation factor vs untreated control",primary rat hepatocytes; 100 μM,2.05
same,"Clone L01 (H. sapiens divalent cation tolerant protein CUTA mRNA), regulation factor vs untreated control",primary rat hepatocytes; 100 μM,2.05
same,"Clone M07 (H. sapiens mitochondrion, cytochrome c oxidase subunit 1), regulation factor vs untreated control",primary rat hepatocytes; 100 μM,2.25
same,"Clone M12 (H. sapiens mRNA; cDNA DKFZp564C1563), regulation factor vs untreated control",primary rat hepatocytes; 100 μM,0.21
same,"Clone W17 (H. sapiens mitochondrion, hypoxia inducible gene-14), regulation factor vs untreated control",primary rat hepatocytes; 100 μM,2.96
same,"Clone T08 (H. sapiens mRNA for KIAA1185 protein), regulation factor vs untreated control","primary rat hepatocytes; Sprague-Dawley, rat, 1 μM",0.50
same,"Clone U04 (H. sapiens translation initiation factor elF-2alpha mRNA), regulation factor vs untreated control","primary rat hepatocytes; Sprague-Dawley, rat, 1 μM",0.57
same,Number of down-regulated clones (Down),"primary rat hepatocytes; Sprague-Dawley, rat, 1 μM",2
same,"Clone AC13 (H. sapiens 7S RNA L gene), regulation factor vs untreated control","primary rat hepatocytes; Sprague-Dawley, rat, 10 μM",0.22
same,"Clone T08 (H. sapiens mRNA for KIAA1185 protein), regulation factor vs untreated control","primary rat hepatocytes; Sprague-Dawley, rat, 10 μM",0.22
same,"Clone U04 (H. sapiens translation initiation factor elF-2alpha mRNA), regulation factor vs untreated control","primary rat hepatocytes; Sprague-Dawley, rat, 10 μM",0.26
same,"Clone X02 (unk), regulation factor vs untreated control","primary rat hepatocytes; Sprague-Dawley, rat, 10 μM",0.29
same,Number of down-regulated clones (Down),"primary rat hepatocytes; Sprague-Dawley, rat, 10 μM",5
same,"Clone A20 (H. sapiens initiation factor elF-5A gene), regulation factor vs untreated control","primary rat hepatocytes; Sprague-Dawley, rat, 100 μM",0.56
same,"Clone AC13 (H. sapiens 7S RNA L gene), regulation factor vs untreated control","primary rat hepatocytes; Sprague-Dawley, rat, 100 μM",0.16
same,"Clone C01 (H. sapiens mitochondrion, 16S), regulation factor vs untreated control","primary rat hepatocytes; Sprague-Dawley, rat, 100 μM",3.20
same,"Clone E11 (H. sapiens chlordecone reductase homolog liver, mRNA), regulation factor vs untreated control","primary rat hepatocytes; Sprague-Dawley, rat, 100 μM",2.12
same,"Clone I18 (H. sapiens 18S rRNA gene), regulation factor vs untreated control","primary rat hepatocytes; Sprague-Dawley, rat, 100 μM",2.38
same,"Clone J03 (H. sapiens CLP mRNA), regulation factor vs untreated control","primary rat hepatocytes; Sprague-Dawley, rat, 100 μM",2.12
same,"Clone L22 (H. sapiens mRNA for Lon protease-like protein), regulation factor vs untreated control","primary rat hepatocytes; Sprague-Dawley, rat, 100 μM",1.78
same,"Clone M23 (Sequence 21 from U.S. Pat. No. 5,851,764), regulation factor vs untreated control","primary rat hepatocytes; Sprague-Dawley, rat, 100 μM",1.95
same,"Clone P05 (H. sapiens PAC clone DJ404K21 from Xq23), regulation factor vs untreated control","primary rat hepatocytes; Sprague-Dawley, rat, 100 μM",1.78
same,"Clone Q24 (H. sapiens 28S ribosomal RNA gene), regulation factor vs untreated control","primary rat hepatocytes; Sprague-Dawley, rat, 100 μM",1.77
same,"Clone T08 (H. sapiens mRNA for KIAA1185 protein), regulation factor vs untreated control","primary rat hepatocytes; Sprague-Dawley, rat, 100 μM",0.20
same,"Clone U04 (H. sapiens translation initiation factor elF-2alpha mRNA), regulation factor vs untreated control","primary rat hepatocytes; Sprague-Dawley, rat, 100 μM",0.19
same,"Clone X02 (unk), regulation factor vs untreated control","primary rat hepatocytes; Sprague-Dawley, rat, 100 μM",0.20
same,"Clone X06 (H. sapiens Genomic sequence from 9q34), regulation factor vs untreated control","primary rat hepatocytes; Sprague-Dawley, rat, 100 μM",0.16
same,"Clone X23 (unk), regulation factor vs untreated control","primary rat hepatocytes; Sprague-Dawley, rat, 100 μM",1.92
same,"Clone Y17 (H. sapiens 28S ribosomal RNA gene), regulation factor vs untreated control","primary rat hepatocytes; Sprague-Dawley, rat, 100 μM",2.65
same,AUC(0-inf),[1]; [5],1.54 µM·h
same,Cmax,[1]; [5],212 nM
same,Tmax,[1]; [5],2.21 h
same,half-life,[1]; [5],5.58 h
same,AUC(0-inf),[1]; [6],1.56 µM·h
same,Cmax,[1]; [6],179 nM
same,Tmax,[1]; [6],2.87 h
same,half-life,[1]; [6],5.75 h
same,Plasma concentrations of the enantiomers compared,[2]; monkey,approximately equivalent
same,Plasma concentrations of the enantiomers compared,[2]; rat,approximately equivalent
same,IC50,3H-paroxetine binding,700 nM
same,IC50,3H-serotonin uptake,600 nM
same,IC50,3H-norepinephrine uptake [3],750 nM
"CCN(CC)C(=O)C1(c2ccccc2)CC1CN (racemic) [F2207, Z(±)-2-(aminomethyl)-N,N-diethyl-1-phenyl cyclopropane carboxamide]",IC50,3H-norepinephrine uptake [4],30 nM
same,IC50,3H-paroxetine binding,130 nM
same,IC50,3H-serotonin uptake,150 nM
"CCN(CC)C(=O)[C@@]1(c2ccccc2)C[C@H]1CN [F2695, Z-(1S,2R)-2-(aminomethyl)-N,N-diethyl-1-phenyl cyclopropane carboxamide]","Clone Q11 (unk), regulation factor vs untreated control","primary rat hepatocytes; Sprague-Dawley, rat, 100 μM",1.81
same,Number of down-regulated clones (Down),"primary rat hepatocytes; Sprague-Dawley, rat, 100 μM",1
same,Number of up-regulated clones (Up),"primary rat hepatocytes; Sprague-Dawley, rat, 100 μM",1
same,AUC(0-inf),[1]; [5],2.87 µM·h
same,Cmax,[1]; [5],216 nM
same,Tmax,[1]; [5],3.08 h
same,half-life,[1]; [5],9.38 h
same,AUC(0-inf),[1]; [6],2.9 µM·h
same,Cmax,[1]; [6],214 nM
same,Tmax,[1]; [6],3.42 h
same,half-life,[1]; [6],9.28 h
same,Plasma concentrations of the enantiomers compared,[2]; monkey,approximately equivalent
same,Plasma concentrations of the enantiomers compared,[2]; rat,approximately equivalent
same,IC50,3H-paroxetine binding,60 nM
same,IC50,3H-serotonin uptake,46 nM
same,IC50,3H-norepinephrine uptake [3],15 nM
